Numbers after ± are expanded uncertainties.
Experiment: refractive index (Na D-line) (dimensionless)
Settings: 298.15 K; 101.33 kPa; Liquid; Standard Abbe refractometry

Compound | refractive index
C1CCCCC1 [cyclohexane] | 1.4236 ± 0.0008
Cc1ccccc1 [toluene] | 1.4942 ± 0.0008
COCCOCCOC [2,5,8-trioxanonane] | 1.4057 ± 0.0008
CC(C)=O [acetone] | 1.3562 ± 0.0012
O=C1CCCCC1 [cyclohexanone] | 1.4498 ± 0.0008
CCCCCC [hexane] | 1.3724 ± 0.0007
C=CCCCC [hex-1-ene] | 1.3853 ± 0.0008

Source: the NIST ThermoML archive (doi:10.1021/je060376d)
